ChEMBL document CHEMBL4765493, “Berberine Directly Targets the NEK7 Protein to Block the NEK7-NLRP3 Interaction and Exert Anti-inflammatory Activity” (J Med Chem, 2021)
One block for each compound: values may come before it. Calls of active or inactive are those of the source. The calls are words filed in the database; no cut-off is given here.

Assays:
[1] = target: DIMT1 dimethyladenosine transferase 1 (Homo sapiens) (UniProt Q9UNQ2); experiment: Binding affinity to DIM1 in PMA-differentiated human THP-1 cells incubated for 2 hrs by SDS-PAGE and LC-MS/MS analysis
Sequence of DIMT1 dimethyladenosine transferase 1 (Homo sapiens) (Q9UNQ2 whole entry, looked up): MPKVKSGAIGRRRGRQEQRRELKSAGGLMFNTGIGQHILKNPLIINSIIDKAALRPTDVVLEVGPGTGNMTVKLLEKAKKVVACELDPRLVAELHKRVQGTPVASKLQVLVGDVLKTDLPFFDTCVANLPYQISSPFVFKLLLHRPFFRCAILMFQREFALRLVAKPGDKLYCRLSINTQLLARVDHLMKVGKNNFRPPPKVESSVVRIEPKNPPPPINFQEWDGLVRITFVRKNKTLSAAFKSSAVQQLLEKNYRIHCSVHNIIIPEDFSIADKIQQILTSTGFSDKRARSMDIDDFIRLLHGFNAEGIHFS

[2] = target: Nicotinamide/nicotinic acid mononucleotide adenylyltransferase 1 (Homo sapiens) (UniProt Q9HAN9); experiment: Binding affinity to NMNAT1 in PMA-differentiated human THP-1 cells incubated for 2 hrs by SDS-PAGE and LC-MS/MS analysis; type: cell-based
Sequence of Nicotinamide/nicotinic acid mononucleotide adenylyltransferase 1 (Homo sapiens) (Q9HAN9 whole entry): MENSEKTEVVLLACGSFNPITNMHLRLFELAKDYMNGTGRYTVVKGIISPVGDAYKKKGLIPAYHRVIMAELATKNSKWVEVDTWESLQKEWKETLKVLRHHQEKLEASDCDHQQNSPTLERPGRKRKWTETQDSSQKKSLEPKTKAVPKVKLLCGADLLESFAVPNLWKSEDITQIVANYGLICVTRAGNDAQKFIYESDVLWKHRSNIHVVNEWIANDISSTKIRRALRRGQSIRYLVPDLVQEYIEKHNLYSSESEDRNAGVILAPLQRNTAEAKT

[3] = target: T1, Serine/threonine-protein kinase Nek7 (Homo sapiens, UniProt Q8TDX7); experiment: Binding affinity to NEK7 in PMA-differentiated human THP-1 cells incubated for 2 hrs by SDS-PAGE and LC-MS/MS analysis; type: cell-based
Target sequence in this assay (Q8TDX7 whole entry, looked up): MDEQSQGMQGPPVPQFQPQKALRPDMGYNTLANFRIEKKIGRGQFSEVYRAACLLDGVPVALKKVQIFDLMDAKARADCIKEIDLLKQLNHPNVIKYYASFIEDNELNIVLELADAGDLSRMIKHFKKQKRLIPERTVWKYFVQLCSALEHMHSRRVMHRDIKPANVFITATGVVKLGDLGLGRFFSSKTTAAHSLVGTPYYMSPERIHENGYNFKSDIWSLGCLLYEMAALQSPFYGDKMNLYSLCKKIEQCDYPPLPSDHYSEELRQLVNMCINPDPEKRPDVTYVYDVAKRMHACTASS

[4] = target: 28S rRNA (cytosine-C(5))-methyltransferase (Homo sapiens) (UniProt Q96P11); experiment: Binding affinity to NSUN5 in PMA-differentiated human THP-1 cells incubated for 2 hrs by SDS-PAGE and LC-MS/MS analysis; type: cell-based
Sequence of 28S rRNA (cytosine-C(5))-methyltransferase (Homo sapiens) (Q96P11 whole entry): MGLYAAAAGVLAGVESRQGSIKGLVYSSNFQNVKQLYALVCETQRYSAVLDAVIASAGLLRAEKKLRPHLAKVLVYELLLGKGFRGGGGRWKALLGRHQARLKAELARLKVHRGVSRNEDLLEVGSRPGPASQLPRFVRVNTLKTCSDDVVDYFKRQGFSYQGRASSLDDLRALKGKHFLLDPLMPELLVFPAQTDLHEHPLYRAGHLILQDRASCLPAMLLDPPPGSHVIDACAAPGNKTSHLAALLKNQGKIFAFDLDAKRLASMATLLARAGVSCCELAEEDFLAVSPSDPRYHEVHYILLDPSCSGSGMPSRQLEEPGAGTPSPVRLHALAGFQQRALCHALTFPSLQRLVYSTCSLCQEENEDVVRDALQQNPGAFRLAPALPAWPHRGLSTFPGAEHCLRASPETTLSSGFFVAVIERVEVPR

[5] = Inhibition of LPS + nigericin-induced IL-1beta secretion in PMA-differentiated human THP-1 cells at 20 uM incubated for 24 hrs by ELISA; type: functional
[6] = target: T2, Serine/threonine-protein phosphatase PGAM5, mitochondrial (Homo sapiens) (UniProt Q96HS1); experiment: Binding affinity to […] in PMA-differentiated human THP-1 cells incubated for 2 hrs by SDS-PAGE and LC-MS/MS analysis; type: cell-based
T2 sequence (whole entry): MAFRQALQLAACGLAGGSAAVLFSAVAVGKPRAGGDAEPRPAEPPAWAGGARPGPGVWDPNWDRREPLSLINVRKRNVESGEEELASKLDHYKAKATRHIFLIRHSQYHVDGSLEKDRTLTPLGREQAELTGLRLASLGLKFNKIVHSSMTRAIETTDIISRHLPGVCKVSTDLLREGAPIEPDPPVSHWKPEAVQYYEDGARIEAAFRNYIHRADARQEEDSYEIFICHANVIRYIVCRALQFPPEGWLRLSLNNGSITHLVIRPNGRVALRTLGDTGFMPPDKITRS

[7] = target: T3, Uridine-cytidine kinase 2 (Homo sapiens) (UniProt Q9BZX2); experiment: Binding affinity to UCK2 in PMA-differentiated human THP-1 cells incubated for 2 hrs by SDS-PAGE and LC-MS/MS analysis; type: cell-based
T3 sequence (whole entry): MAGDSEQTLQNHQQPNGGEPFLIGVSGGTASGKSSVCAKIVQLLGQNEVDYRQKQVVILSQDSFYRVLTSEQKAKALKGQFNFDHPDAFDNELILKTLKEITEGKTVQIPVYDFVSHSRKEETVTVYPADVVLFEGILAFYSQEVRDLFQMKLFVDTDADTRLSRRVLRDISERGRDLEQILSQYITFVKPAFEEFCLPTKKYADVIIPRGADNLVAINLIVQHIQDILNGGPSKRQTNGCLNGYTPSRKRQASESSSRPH

[8] = target: T1, Serine/threonine-protein kinase Nek7; experiment: Binding affinity to human recombinant NEK7 incubated for 2 hrs by pull down assay relative to control; conditions: THP-1
Target sequence in this assay (Q8TDX7 whole entry, looked up): as the sequence (Q8TDX7 whole entry, looked up) above

[9] = target: T1, Serine/threonine-protein kinase Nek7; experiment: Binding affinity to NEK7 in PMA-differentiated human THP-1 cells incubated for 2 hrs by immunoblot analysis; type: cell-based
Target sequence in this assay (Q8TDX7 whole entry, looked up): as above

[10] = target: T1, Serine/threonine-protein kinase Nek7; experiment: Binding affinity to human recombinant NEK7 incubated for 2 hrs by pull down assay; conditions: THP-1
Target sequence in this assay (Q8TDX7 whole entry, looked up): as above

[11] = target: T1, Serine/threonine-protein kinase Nek7; experiment: Binding affinity to human recombinant NEK7 incubated for 2 hrs in presence of BBR by pull down assay
Target sequence in this assay (Q8TDX7 whole entry, looked up): as above

[12] = target: T1, Serine/threonine-protein kinase Nek7; experiment: Binding affinity to purified recombinant human NEK7 by SPR analysis
Target sequence in this assay (Q8TDX7 whole entry): as the sequence (Q8TDX7 whole entry, looked up) above

[13] = Inhibition of LPS + nigericin-induced IL-1beta secretion in PMA-differentiated human THP-1 cells incubated for 1 to 24 hrs by Immunoblot analysis; type: functional, cell-based
THP-1 [14] = experiment: Inhibition of LPS + nigericin-induced IL-1beta secretion in human THP-1 cells pre-treatment for 4 hrs before LPS + nigericin by immunoblot analysis; type: functional, cell-based
THP-1 [15] = experiment: Inhibition of NEK7-NLRP3 interaction in human THP-1 cells incubated for 24 hrs by Co-IP assay; type: cell-based
THP-1 [16] = experiment: Inhibition of LPS + nigericin-induced caspase-1 activation in human THP-1 cells pre-treatment for 4 hrs before LPS + nigericin by immunoblot analysis; type: functional, cell-based
[17] = target: T1, Serine/threonine-protein kinase Nek7; experiment: Binding affinity to NEK7 in PMA-differentiated human THP-1 cells at 100 uM incubated for 8 hrs by streptavidin-bead enrichment and immunoblot assay; type: cell-based
Target sequence in this assay (Q8TDX7 whole entry, looked up): as above

Mus musculus [18] = experiment: Antiinflammatory activity in NEK7 wild type C57BL/6 mouse model assessed as reduction in lesion in kidney in at 5 mg/kg, ip dosed three times every 12 hrs followed by LPS challenge by H and E staining; type: functional, organism-based
BMDM [19] = experiment: Inhibition of LPS + nigericin-induced IL-1beta secretion in mouse BMDM at 2.5 to 20 uM pre-treatment for 4 hrs before LPS + nigericin by immunoblot analysis; type: functional, tissue-based; conditions: dose 2.5-20 µM
[20] = Toxicity in mouse BMDM cells assessed as induction of apoptosis by measuring cleaved caspase-3 levels up to 40 uM incubated for 24 hrs by immunoblot analysis; type: cell-based
Mus musculus [21] = experiment: Inhibition of serum IL-1beta production in NEK7 wild type C57BL/6 mouse model at 5 mg/kg, ip dosed three times every 12 hrs followed by LPS challenge by ELISA; type: functional, organism-based
Mus musculus [22] = experiment: Antiinflammatory activity in NEK7 wild type C57BL/6 mouse model assessed as reduction in lesion in lung in at 5 mg/kg, ip dosed three times every 12 hrs followed by LPS challenge by H and E staining; type: functional, organism-based
[23] = target: T1, Serine/threonine-protein kinase Nek7; experiment: Inhibition of purified recombinant human NEK7 incubated for 15 mins before ATP and substrate addition and further incubated for 40 mins by ADPGlo kinase assay
Target sequence in this assay (Q8TDX7 whole entry): as the sequence (Q8TDX7 whole entry, looked up) above

THP-1 [24] = experiment: Inhibition of LPS + nigericin-induced pro-IL-beta expression in human THP-1 cells at 2.5 to 20 uM pre-treatment for 4 hrs before LPS + nigericin by immunoblot analysis; type: functional, cell-based; conditions: dose 2.5-20 µM
HEK293 [25] = experiment: Inhibition of NEK7 R121A mutant-NLRP3 interaction (unknown origin) expressed in HEK293 cells at 10 uM incubated for 24 hrs by Co-IP assay; type: cell-based; conditions: Homo sapiens
BMDM [26] = experiment: Inhibition of LPS + nigericin-induced caspase-1 activation in mouse BMDM at 2.5 to 20 uM pre-treatment for 4 hrs before LPS + nigericin by immunoblot analysis; type: functional, tissue-based; conditions: dose 2.5-20 µM
Mus musculus [27] = experiment: Antiinflammatory activity in NEK7 wild type C57BL/6 mouse model assessed as reduction in lesion in spleen in at 5 mg/kg, ip dosed three times every 12 hrs followed by LPS challenge by H and E staining; type: functional, organism-based
[28] = Toxicity in mouse BMDM cells assessed as induction of apoptosis by measuring cleaved caspase-9 levels up to 40 uM incubated for 24 hrs by immunoblot analysis; type: cell-based
HEK293 [29] = experiment: Inhibition of NEK7-NLRP3 interaction (unknown origin) expressed in HEK293 cells incubated for 24 hrs by Co-IP assay; type: cell-based; conditions: Homo sapiens
HEK293 [30] = experiment: Inhibition of NEK7-NLRP3 interaction (unknown origin) expressed in HEK293 cells at 10 uM incubated for 24 hrs by Co-IP assay; type: cell-based; conditions: Homo sapiens
[31] = Toxicity in mouse BMDM cells assessed as induction of cell death up to 40 uM incubated for 24 hrs by MTS assay; type: cell-based
THP-1 [32] = experiment: Inhibition of AIM2-induced IL-1beta activation in human THP-1 cells at 10 uM pre-treatment for 2 hrs before AIM2 addition; type: functional, cell-based
[33] = Toxicity in mouse BMDM cells assessed as induction of apoptosis by measuring cleaved caspase-7 levels up to 40 uM incubated for 24 hrs by immunoblot analysis; type: cell-based
Mus musculus [34] = experiment: Antiinflammatory activity in NEK7 wild type C57BL/6 mouse model assessed as reduction in lesion in heart in at 5 mg/kg, ip dosed three times every 12 hrs followed by LPS challenge by H and E staining; type: functional, organism-based
[35] = target: T1, Serine/threonine-protein kinase Nek7; experiment: Binding affinity to NEK7 in PMA-differentiated human THP-1 cells assessed as reduction in Cy3-labeled target proteins at 100 uM incubated for 8 hrs using probe-16 by fluorescent gel imaging analysis; type: cell-based
THP-1 [36] = experiment: Inhibition of LPS + nigericin-induced NLRP3 expression in human THP-1 cells at 2.5 to 20 uM pre-treatment for 4 hrs before LPS + nigericin by immunoblot analysis; type: functional, cell-based; conditions: dose 2.5-20 µM
Mus musculus [37] = experiment: Antiinflammatory activity in NEK7 wild type C57BL/6 mouse model assessed as reduction in inflammatory infiltration in liver at 5 mg/kg, ip dosed three times every 12 hrs followed by LPS challenge by H and E staining; type: functional, organism-based
THP-1 [38] = experiment: Inhibition of LPS + nigericin-induced ASC-pyroptosome formation in human THP-1 cells at 5 to 10 uM uM pre-treatment for 4 hrs before LPS + nigericin addition by immunofluorescence analysis; type: functional, cell-based; conditions: dose 5-10 µM
BMDM [39] = experiment: Inhibition of LPS + nigericin-induced NLRP3 expression in mouse BMDM at 2.5 to 20 uM pre-treatment for 4 hrs before LPS + nigericin by immunoblot analysis; type: functional, tissue-based; conditions: dose 2.5-20 µM
Mus musculus [40] = experiment: Inhibition of serum IL-1beta production in NEK7 knockdown C57BL/6 mouse model at 5 mg/kg, ip dosed three times every 12 hrs followed by LPS challenge by ELISA; type: functional, organism-based
BMDM [41] = experiment: Inhibition of LPS + nigericin-induced pro-IL-1beta expression in mouse BMDM at 2.5 to 20 uM pre-treatment for 4 hrs before LPS + nigericin by immunoblot analysis; type: functional, tissue-based; conditions: dose 2.5-20 µM

- Activity [1]: inactive
- Activity [2]: inactive
- Activity [3]: inactive
- Activity [4]: inactive
- Activity [6]: inactive
- Activity [7]: inactive
Structure (SMILES): COc1cc2c(cc1OC)-c1cc3ccc(OC)c(OCCOCCOCCNC(=O)CCCC[C@@H]4SC[C@@H]5NC(=O)N[C@@H]54)c3c[n+]1CC2
- inhibition at 20 µM [5]: -78%

Structure (SMILES): COc1cc2c(cc1OCCCNC(=O)CCCC[C@@H]1SC[C@@H]3NC(=O)N[C@@H]31)CC[n+]1cc3c(OC)c(OC)ccc3cc1-2
- inhibition at 20 µM [5]: -49%

Structure (SMILES): COc1ccc2cc3[n+](cc2c1OCCCNC(=O)CCCC[C@@H]1SC[C@@H]2NC(=O)N[C@@H]21)CCc1cc2c(cc1-3)OCO2
- inhibition at 20 µM [5]: -92%

Structure (SMILES): COc1cc2c(cc1OCCOCCNC(=O)CCCC[C@@H]1SC[C@@H]3NC(=O)N[C@@H]31)CC[n+]1cc3c(OC)c(OC)ccc3cc1-2
- inhibition at 20 µM [5]: 75%

- Activity [1]: Active
- Activity [8]: Dose-dependent effect
- Activity [2]: Active
- Activity [3]: Active
- Activity [4]: Active
- Activity [6]: Active
- Activity [7]: Active
- Activity [9]: Active
- Activity [10]: Active
- Activity [11]: inactive
Structure (SMILES): COc1c(OCCOCCOCCNC(=O)CCCC[C@@H]2SC[C@@H]3NC(=O)N[C@@H]32)ccc2cc3[n+](cc12)CCc1cc2c(cc1-3)OCO2
- inhibition at 20 µM [5]: 83%

Structure (SMILES): COc1c(OCCOCCNC(=O)CCCC[C@@H]2SC[C@@H]3NC(=O)N[C@@H]32)ccc2cc3[n+](cc12)CCc1cc2c(cc1-3)OCO2
- inhibition at 20 µM [5]: 26%

Structure (SMILES): COc1ccc2cc3[n+](cc2c1OCCOCCOCCNC(=O)CCCC[C@@H]1SC[C@@H]2NC(=O)N[C@@H]21)CCc1cc2c(cc1-3)OCO2
- inhibition at 20 µM [5]: 16%

- Kd [12]: 15.6 µM
- IC50 [13]: 5.1 µM
- Activity [17]: Active
- IC50 [23]: 4.2 µM
- inhibition (BMDM [26]): Active
- Activity [35]: Active
Structure (SMILES): COc1ccc2cc3[n+](cc2c1OC)CCc1cc2c(cc1-3)OCO2.[Cl-] [BERBERINE CHLORIDE]
- inhibition (THP-1 [14]): Active
- inhibition (THP-1 [15]): Dose-dependent effect
- inhibition (THP-1 [16]): Active
- Activity (Mus musculus [18]): Active
- inhibition (BMDM [19]): Active
- Activity [20]: Non-Toxic
- Activity (Mus musculus [21]): Active
- Activity (Mus musculus [22]): Active
- inhibition at 20 µM [5]: 72%
- inhibition (THP-1 [24]): inactive
- inhibition (HEK293 [25]): inactive
- Activity (Mus musculus [27]): Active
- Activity [28]: Non-Toxic
- inhibition (HEK293 [29]): Dose-dependent effect
- inhibition (HEK293 [30]): Active
- Activity [31]: Non-Toxic
- inhibition (THP-1 [32]): inactive
- Activity [33]: Non-Toxic
- Activity (Mus musculus [34]): Active
- inhibition (THP-1 [36]): inactive
- Activity (Mus musculus [37]): Active
- inhibition (THP-1 [38]): Active
- inhibition (BMDM [39]): inactive
- Activity (Mus musculus [40]): inactive
- inhibition (BMDM [41]): inactive

Structure (SMILES): COc1c(OCCCNC(=O)CCCC[C@@H]2SC[C@@H]3NC(=O)N[C@@H]32)ccc2cc3[n+](cc12)CCc1cc2c(cc1-3)OCO2
- inhibition at 20 µM [5]: 38%

Structure (SMILES): COc1cc2c(cc1OCCCCCNC(=O)CCCC[C@@H]1SC[C@@H]3NC(=O)N[C@@H]31)CC[n+]1cc3c(OC)c(OC)ccc3cc1-2
- inhibition at 20 µM [5]: 70%
